From US12421269B2, “SGLT2/DPP4 inhibitor and application thereof” (CGeneTech (Suzhou, China) CO., Ltd., priority 2019, dated 2025)

Assays:
Human-SGLT1 = biological target: T1, Human-SGLT1 (Homo sapiens, UniProt P13866); experiment: SGLT1 glucose transport assay ([14C]-labeled glucose uptake); type: cell-based; details: cells stably expressing Human-SGLT1, 37° C., 2 hours
T1 sequence (P13866 1-664): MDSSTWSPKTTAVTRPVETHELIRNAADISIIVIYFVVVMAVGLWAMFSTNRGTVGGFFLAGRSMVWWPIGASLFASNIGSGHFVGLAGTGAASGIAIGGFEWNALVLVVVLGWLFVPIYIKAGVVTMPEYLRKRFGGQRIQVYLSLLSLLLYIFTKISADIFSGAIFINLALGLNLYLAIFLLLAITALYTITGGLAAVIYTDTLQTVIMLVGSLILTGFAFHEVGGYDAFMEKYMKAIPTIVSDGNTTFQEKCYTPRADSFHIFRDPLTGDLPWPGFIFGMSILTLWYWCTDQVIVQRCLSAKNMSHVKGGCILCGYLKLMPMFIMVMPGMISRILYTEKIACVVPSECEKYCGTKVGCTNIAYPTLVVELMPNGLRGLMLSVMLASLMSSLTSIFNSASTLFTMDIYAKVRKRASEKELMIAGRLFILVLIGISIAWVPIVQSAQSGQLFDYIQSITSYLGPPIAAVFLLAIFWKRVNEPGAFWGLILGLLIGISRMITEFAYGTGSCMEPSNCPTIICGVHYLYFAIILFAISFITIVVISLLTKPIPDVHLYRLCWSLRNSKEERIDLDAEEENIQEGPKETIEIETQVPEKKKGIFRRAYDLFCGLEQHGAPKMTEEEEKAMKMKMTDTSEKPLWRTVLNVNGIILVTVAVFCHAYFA
Procedure: To test the effect of compounds on the glucose transport activity of SGLT1 transporters by measuring the amount of [^14C]-labeled glucose entering highly expressed Human-SGLT1 cells.
The cells stably expressing Human-SGLT1 used for the experiments were constructed by WuXi AppTec Shanghai. The SGLT1 cells were plated in Cytostar-T (PerkinElmer) 96-well cell culture plates and cultured overnight at 5% CO2, 37° C.
Experimental buffer: 10 mM 4-hydroxyethylpiperazine ethanesulfonic acid (HEPES), 1.2 mM magnesium chloride (MgCl2), 4.7 mM potassium chloride (KCl), 2.2 mM calcium chloride (CaCl2) and 120 mM sodium chloride (NaCl).
The compounds were diluted with 100% dimethyl sulfoxide (DMSO) at a starting concentration of 1 mM, 8 points of 5-fold serial gradient dilution was made.
3 μM [^14C]-labeled methyl α-D-glucopyranoside (Methyl a-D-glucopyranosid) was prepared with experimental buffer.
Cells were treated with 49 μL of experimental buffer, 1 μL of gradient-diluted compound and 50 μL of 3 μM [^14C]-isotope-labeled glucose solution at 37° C. for 2 hours.
Readings were taken with an isotope detector (Micro beta Reader).
The data were calculated by GraphPad Prism 5.0 software using the formula: log(inhibitor) vs. response—Variable slope to obtain the IC50 values of the tested compounds, and the experimental results are shown in Table 5.

SD Rat = experiment: Oral glucose tolerance (OGTT) in rats; type: in vivo; details: male SD rats, single gavage dose, Canagliflozin 3 mg/kg, test compound 10 mg/kg
Procedure: The animals will be acclimatized in the animal room for 1 week after arrival at the facility.
The animals are fasted for 16 hours in the metabolic cage and given the drug or solvent (5 mL/kg) according to the table above, followed immediately by 50% glucose solution (2 g/kg, 4 mL/kg).
After 1 hour of glucose administration, the animals resumed feeding, and blood samples were collected at 0 min, 20 min, 40 min, 60 min, 90 min and 120 min for blood glucose measurement; urine at 0 to 24 hours was used for urinary glucose (mg/200 g) and urine volume test, respectively.
All values were expressed as mean values. Statistical analysis was performed using Graphpad Prism 6 single factor analysis of variance Tukey's multiple comparison test. The p-value less than 0.05 was considered statistically significant.

Row | IC50 (Human-SGLT1) [nM] | Structure (SMILES) | OGTT blood glucose levels AUC0-2hr (SD Rat; glucose 2 g/kg) [mmol/L/min] | Urinary glucose level (SD Rat; urine 0 to 24 hours) [mg/200 gBW] | Urine volume (SD Rat; urine 0 to 24 hours) [mL/200 gBW]
1 | 1280 | CS[C@H]1O[C@@H](c2ccc(F)c(Cc3ccc(O[C@@H]4CCN([C@H]5CO[C@H](c6cc(F)ccc6F)[C@@H](N)C5)C4)cc3)c2)[C@H](O)[C@@H](O)[C@@H]1O [WX001] | 869 | 0.7 | 10.6
2 | 298 | CS[C@H]1O[C@@H](c2cc(Cc3ccc(O[C@@H]4CCN([C@H]5CO[C@H](c6cc(F)ccc6F)[C@@H](N)C5)C4)cc3)c(F)cc2F)[C@H](O)[C@@H](O)[C@@H]1O [WX006] | – | – | –
